Results published in patent publication US12453709B2, “Compositions and methods for treating autism” (priority 2013, dated 2025).
Marks after values point to notes of the source that are not given here.

Test system: male patients diagnosed with autism
Test: Study HT 02-121: adverse events
Format: in vivo, human
Procedure: The purpose of this clinical study (referred to herein as “Study HT 02-121”; i.e., Example 6) was to determine whether L1-79 was a well-tolerated and clinically useful agent for the treatment of ASD, and to assess the PK and pharmacodynamics (PD) of four weeks of TID dosing with L1-79. […] The first cohort of 20 patients was comprised of three groups of patients: The first group of five patients received open-label L1-79 100 mg TID and underwent PK and EKG assessments. […] The PK and safety data from the open-label L1-79 100 mg TID group was submitted to FDA for review and acceptance before the second cohort was enrolled. The second cohort was procedurally identical to the first. The second cohort of 20 patients was comprised of the same three groups of patients but a dose of 200 mg TID was used instead of 100 mg TID. The key inclusion criteria were as follows: […] Safety was the primary endpoint of the study. The following safety endpoints were assessed: ECGs, physical exams, laboratory evaluations (hematology, chemistry and urinalysis), vital signs, including orthostatic blood pressure, adverse events (AEs) and concomitant medications. The incidence of AEs by primary system organ class and preferred term is presented in Table 7, and a listing of the AEs reported during the study is presented in Table 8. All AEs were mild to moderate in intensity and self-limited.

CC(N)(Cc1ccc(O)cc1)C(=O)O (racemic) [L1-79, α-methyl-DL-tyrosine]
safety and tolerability (28-day treatment period): safe and well tolerated | Incidence of AEs: Agitation (DB 100 mg TID, N = 10): 0[0] n(%) | Incidence of AEs: All primary SOC (DB 100 mg TID, N = 10): 1(10.0) n(%) | Incidence of AEs: Amylase † (DB 100 mg TID, N = 10): 0[0] n(%) | Incidence of AEs: Anxiety (DB 100 mg TID, N = 10): 0[0] n(%) | Incidence of AEs: Blood TSH † (DB 100 mg TID, N = 10): 0[0] n(%) | Incidence of AEs: Confusional state (DB 100 mg TID, N = 10): 0[0] n(%) | Incidence of AEs: Cough (DB 100 mg TID, N = 10): 0[0] n(%) | Incidence of AEs: Crystal urine present (DB 100 mg TID, N = 10): 0[0] n(%) | Incidence of AEs: Diarrhoea (DB 100 mg TID, N = 10): 0[0] n(%) | Incidence of AEs: Ear infection (DB 100 mg TID, N = 10): 0[0] n(%) | Incidence of AEs: Fatigue (DB 100 mg TID, N = 10): 0[0] n(%) | Incidence of AEs: GI disorders (DB 100 mg TID, N = 10): 0[0] n(%) | Incidence of AEs: General disorders & administration site conditions (DB 100 mg TID, N = 10): 0[0] n(%) | Incidence of AEs: Generalized tonic-clonic seizure (DB 100 mg TID, N = 10): 0[0] n(%) | Incidence of AEs: Immune system disorders (DB 100 mg TID, N = 10): 0[0] n(%) | Incidence of AEs: Infections and infestations (DB 100 mg TID, N = 10): 0[0] n(%) | Incidence of AEs: International self-injury (DB 100 mg TID, N = 10): 0[0] n(%) | Incidence of AEs: Investigations (DB 100 mg TID, N = 10): 0[0] n(%) | Incidence of AEs: Irritability (DB 100 mg TID, N = 10): 0[0] n(%) | Incidence of AEs: Nasopharyngitis (DB 100 mg TID, N = 10): 0[0] n(%) | Incidence of AEs: Nervous system disorders (DB 100 mg TID, N = 10): 1(10.0) n(%) | Incidence of AEs: Otitis externa (DB 100 mg TID, N = 10): 0[0] n(%) | Incidence of AEs: Psychiatric disorders (DB 100 mg TID, N = 10): 0[0] n(%) | Incidence of AEs: Pyrexia (DB 100 mg TID, N = 10): 0[0] n(%) | Incidence of AEs: Renal and urinary disorders (DB 100 mg TID, N = 10): 0[0] n(%) | Incidence of AEs: Respiratory, thoracic & mediastinal disorders (DB 100 mg TID, N = 10): 0[0] n(%) | Incidence of AEs: Seasonal allergy (DB 100 mg TID, N = 10): 0[0] n(%) | Incidence of AEs: Syncope (DB 100 mg TID, N = 10): 1(10.0) n(%) | Incidence of AEs: Urinary incontinence (DB 100 mg TID, N = 10): 0[0] n(%) | Number of AE events: All primary SOC (DB 100 mg TID, N = 10): 1 [e] | Number of AE events: Nervous system disorders (DB 100 mg TID, N = 10): 1 [e] | Number of AE events: Syncope (DB 100 mg TID, N = 10): 1 [e] | Incidence of AEs: Agitation (DB 200 mg TID, N = 11): 0[0] n(%) | Incidence of AEs: All primary SOC (DB 200 mg TID, N = 11): 6(54.5) n(%) | Incidence of AEs: Amylase † (DB 200 mg TID, N = 11): 0[0] n(%) | Incidence of AEs: Anxiety (DB 200 mg TID, N = 11): 1(9.1) n(%) | Incidence of AEs: Blood TSH † (DB 200 mg TID, N = 11): 1(9.1) n(%) | Incidence of AEs: Confusional state (DB 200 mg TID, N = 11): 0[0] n(%) | Incidence of AEs: Cough (DB 200 mg TID, N = 11): 0[0] n(%) | Incidence of AEs: Crystal urine present (DB 200 mg TID, N = 11): 2(18.2) n(%) | Incidence of AEs: Diarrhoea (DB 200 mg TID, N = 11): 3(27.3) n(%) | Incidence of AEs: Ear infection (DB 200 mg TID, N = 11): 1(9.1) n(%) | Incidence of AEs: Fatigue (DB 200 mg TID, N = 11): 0[0] n(%) | Incidence of AEs: GI disorders (DB 200 mg TID, N = 11): 3(27.3) n(%) | Incidence of AEs: General disorders & administration site conditions (DB 200 mg TID, N = 11): 0[0] n(%) | Incidence of AEs: Generalized tonic-clonic seizure (DB 200 mg TID, N = 11): 1(9.1) n(%) | Incidence of AEs: Immune system disorders (DB 200 mg TID, N = 11): 0[0] n(%) | Incidence of AEs: Infections and infestations (DB 200 mg TID, N = 11): 2(18.2) n(%) | Incidence of AEs: International self-injury (DB 200 mg TID, N = 11): 0[0] n(%) | Incidence of AEs: Investigations (DB 200 mg TID, N = 11): 3(27.3) n(%) | Incidence of AEs: Irritability (DB 200 mg TID, N = 11): 0[0] n(%) | Incidence of AEs: Nasopharyngitis (DB 200 mg TID, N = 11): 0[0] n(%) | Incidence of AEs: Nervous system disorders (DB 200 mg TID, N = 11): 1(9.1) n(%) | Incidence of AEs: Otitis externa (DB 200 mg TID, N = 11): 1(9.1) n(%) | Incidence of AEs: Psychiatric disorders (DB 200 mg TID, N = 11): 1(9.1) n(%) | Incidence of AEs: Pyrexia (DB 200 mg TID, N = 11): 0[0] n(%) | Incidence of AEs: Renal and urinary disorders (DB 200 mg TID, N = 11): 0[0] n(%) | Incidence of AEs: Respiratory, thoracic & mediastinal disorders (DB 200 mg TID, N = 11): 0[0] n(%) | Incidence of AEs: Seasonal allergy (DB 200 mg TID, N = 11): 0[0] n(%) | Incidence of AEs: Syncope (DB 200 mg TID, N = 11): 0[0] n(%) | Incidence of AEs: Urinary incontinence (DB 200 mg TID, N = 11): 0[0] n(%) | Number of AE events: All primary SOC (DB 200 mg TID, N = 11): 10 [e] | Number of AE events: Anxiety (DB 200 mg TID, N = 11): 1 [e] | Number of AE events: Blood TSH † (DB 200 mg TID, N = 11): 1 [e] | Number of AE events: Crystal urine present (DB 200 mg TID, N = 11): 2 [e] | Number of AE events: Diarrhoea (DB 200 mg TID, N = 11): 3 [e] | Number of AE events: Ear infection (DB 200 mg TID, N = 11): 1 [e] | Number of AE events: GI disorders (DB 200 mg TID, N = 11): 3 [e] | Number of AE events: Generalized tonic-clonic seizure (DB 200 mg TID, N = 11): 1 [e] | Number of AE events: Infections and infestations (DB 200 mg TID, N = 11): 2 [e] | Number of AE events: Investigations (DB 200 mg TID, N = 11): 3 [e] | Number of AE events: Nervous system disorders (DB 200 mg TID, N = 11): 1 [e] | Number of AE events: Otitis externa (DB 200 mg TID, N = 11): 1 [e] | Number of AE events: Psychiatric disorders (DB 200 mg TID, N = 11): 1 [e] | Incidence of AEs: Agitation (OL 100 mg TID, N = 5): 0[0] n(%) | Incidence of AEs: All primary SOC (OL 100 mg TID, N = 5): 2(40.0) n(%) | Incidence of AEs: Amylase † (OL 100 mg TID, N = 5): 0[0] n(%) | Incidence of AEs: Anxiety (OL 100 mg TID, N = 5): 1(20.0) n(%) | Incidence of AEs: Blood TSH † (OL 100 mg TID, N = 5): 0[0] n(%) | Incidence of AEs: Confusional state (OL 100 mg TID, N = 5): 1(20.0) n(%) | Incidence of AEs: Cough (OL 100 mg TID, N = 5): 0[0] n(%) | Incidence of AEs: Crystal urine present (OL 100 mg TID, N = 5): 0[0] n(%) | Incidence of AEs: Diarrhoea (OL 100 mg TID, N = 5): 0[0] n(%) | Incidence of AEs: Ear infection (OL 100 mg TID, N = 5): 0[0] n(%) | Incidence of AEs: Fatigue (OL 100 mg TID, N = 5): 0[0] n(%) | Incidence of AEs: GI disorders (OL 100 mg TID, N = 5): 0[0] n(%) | Incidence of AEs: General disorders & administration site conditions (OL 100 mg TID, N = 5): 0[0] n(%) | Incidence of AEs: Generalized tonic-clonic seizure (OL 100 mg TID, N = 5): 0[0] n(%) | Incidence of AEs: Immune system disorders (OL 100 mg TID, N = 5): 0[0] n(%) | Incidence of AEs: Infections and infestations (OL 100 mg TID, N = 5): 0[0] n(%) | Incidence of AEs: International self-injury (OL 100 mg TID, N = 5): 2(40.0) n(%) | Incidence of AEs: Investigations (OL 100 mg TID, N = 5): 0[0] n(%) | Incidence of AEs: Irritability (OL 100 mg TID, N = 5): 2(40.0) n(%)
